Legend:
[1] = test system: Nrf2; test: Nrf2 Cellular Assay (pGL4.37[luc2P/ARE/Hygro] luciferase reporter in HepG2 cells); format: cell-based; conditions: ARE luciferase, 6 hours compound treatment
Protocol: Example 2.2 Nrf2 Cellular Assay
• 1. pGL4.37[luc2P/ARE/Hygro] vector was diluted to 25 ng/μL in Opti-MEM. • 2. Lipofectamine 3000 was added to a 2:1 lipid:DNA. The mixture was mixed by pipetting and incubate at room temperature for 15 minutes. • 3. HepG2 cells were cultured in complete medium (DMEM+10% FBS). • 4. Trypsin was added to the cells, which were filtered via a cell strainer to remove cell cluster, the cells were then quantified and diluted to 2×10^5 cells/ml in complete medium. • 5. The cells and plasmid were mixed, seeded to 384-well plate 50 μL per well (50 ng DNA/well) and incubated for 24 hours in a 37° C., 5% CO2 incubator.
• 1. Medium was removed from cells and replaced with 36 μL of DMEM+10% FBS per well. • 2. Incubated overnight in a 37° C., 5% CO2 incubator.
• 1. Test compound was serially diluted tin DMSO, and further diluted with DMEM (contains 10% FBS) to 10× final concentration. • 2. 4 μL of the 10× compound was added to each well, the plate was shaken for 10 sec on a plate shaker and incubated for 6 hours in a 37° C., 5% CO2 incubator.
• 1. Plates were removed from the 37° C., 5% CO2 incubator and allowed to cool to room temperature for approximately 15 minutes. • 2. 40 μL of the Glo Luciferase Assay System detection reagents were added, and the plate was shaken for 3 min and luminescence was measured.

[2] = target: T1, Keap1-Nrf2 (Homo sapiens, UniProt Q14145); test: Keap1-Nrf2 Binding Inhibitory Activity Assay (fluorescence polarization, Keap1_FL + FITC-Nrf2 peptide); conditions: Keap1-FL, 60 min room temperature
T1 construct: purchased Sino Biological 11981-H20B
Protocol: Example 2.1 Keap1-Nrf2 Binding Inhibitory Activity Assay
• PerkinElmer EnVision 2105 Multilabel Reader • PerkinElmer FITC FP dual emission Label 2100-8060 • LABCYTE Echo 650 • Corning 384-well microplate #4514 • Keap1_FL, Sino Biological, catalog 11981-H20B • FITC-Nrf2 peptide, GL Biochem, Lot No: p210427-XQ892761
• a) Reference titration • 1. Keap1-Nrf2 Assay Buffer was prepared: 10 mM Tris-HCl pH 7.4, 150 mM NaCl, 50 mM EDTA, 0.05% Tween20, 0.1 mg/ml BSA (freshly add before use). • 2. 2.04× Tracer working solution was prepared: 2.04 nM FITC-Nrf2 peptide in Assay Buffer from 1 μM DMSO stock. • 3. 2× Protein working solution was prepared: 25 nM Keap1-FL in Assay Buffer. • 4. 100× compound working solutions with DMSO were prepared. Starting from 100 μM, serial 3-fold dilutions (10 points) were made by the Echo on the 384-well LDV microplate, then 200 nL of compounds, in duplicated wells, were transferred to a Corning 4514 plate. • 5. 9.8 μL per well of the Tracer working solution was added into the Corning 4514 plate. • 6. 10 μL per well of the Protein working solution was added into the Corning 4514 plate, except for the first two columns where Dilution Buffer were added to serve as “positive control”. • 7. The plate was incubated at room temperature for 60 min. • b) Read data on an EnVision with the following setting: Excitation Light (%): 84; Measurement Height: 9.4; G-Factor: 1; Detector Gain 1:220; Detector Gain 2: 220; Flash Number: 50.
All the Test Compounds were considered as having Keap1-Nrf2 binding inhibitory activity.

[3] = from C=CCCCn1nnc2c(Cl)c(C(CC(=O)OCc3ccccc3)c3ccc4c(c3)CN(C(=O)N3CCC(C=C)CC3)CC4)ccc21; rcm bond; 21-membered ring; Grubbs II; DCM; 53.3 mM; 19.0 h

| SMILES | EC50 ([1]; Homo sapiens, HepG2, 6 h) [µM] | IC50 [2] [nM] | EC50 [1] [µM] | ring closure, isolated yield [3] [%] |
| --- | --- | --- | --- | --- |
| Cc1cc2cc3c1CCN(C3)C(=O)c1ccc(cc1)COCCCn1nnc3c(C)c(ccc31)C2CC(=O)O (stereo not shown) [Compound 4, 2-(1^4,3^5-dimethyl-4-oxo-3^1,3^2,3^3,3^4-tetrahydro-1^1H-7-oxa-3(7,2)-isoquinolina-1(5,1)-benzo[d][1,2,3]triazola-5(1,4)-benzenacyclodecaphane-2-yl)acetic acid] | ≤ 10 | ≤ 100 | – | – |
| O=C(O)CC1c2ccc3c(c2)CN(CC3)C(=O)N2CCC(CCCCCn3nnc4cc1cnc43)CC2 (single isomer, unassigned) [Compound 53] | 10 to 30 | ≤ 100 | – | – |
| O=C(CC1c2ccc3c(c2)CN(CC3)C(=O)N2CCC(C=CCCCn3nnc4c(Cl)c1ccc43)CC2)OCc1ccccc1 (stereo not shown) | – | – | – | 13.3 |
| Cc1c2ccc3c1nnn3CCOCCOc1ccc(cc1)S(=O)(=O)N1CCc3ccc(cc3C1)C2CC(=O)O (stereo not shown) [Compound 1, tert-butyl 2-(1^4-methyl-4,4-dioxido-3^1,3^2,3^3,3^4-tetrahydro-1^1H-6,9-dioxa-4-thia-3(7,2)-isoquinolina-1(5,1)-benzo[d][1,2,3]triazola-5(1,4)-benzenacycloundecaphane-2-yl)acetic acid] | > 30 | 100 to 1000 | – | – |
| Cc1c2ccc3c1nnn3C/C=C\COC1CCN(CC1)C(=O)N1CCc3ccc(cc3C1)C2CC(=O)O (stereo not shown) [Compound 11, (Z)-2-(1^4-methyl-4-oxo-3^1,3^2,3^3,3^4-tetrahydro-1^1H-6-oxa-3(7,2)-isoquinolina-1(5,1)-benzo[d][1,2,3]triazola-5(1,4)-piperidinacyclodecaphan-8-en-2-yl)acetic acid] | ≤ 10 | ≤ 100 | – | – |
| O=C(O)CC1c2ccc3c(c2)CN(CC3)C(=O)N2CCC(CCCCCn3nnc4cc1cnc43)CC2 (single isomer, unassigned) [Compound 54] | – | ≤ 100 | ≤ 10 | – |
| Cc1c2ccc3c1nnn3CCOCCN1CCN(CC1)C(=O)c1ccc3ccc(cc3c1)C2CC(=O)O (stereo not shown) [Compound 8, 2-(1^4-methyl-4-oxo-1^1H-8-oxa-1(5,1)-benzo[d][1,2,3]triazola-5(1,4)-piperazina-3(2,7)-naphthalenacyclodecaphane-2-yl)acetic acid] | > 30 | 1000 to 10000 | – | – |
| Cc1c2ccc3c1nnn3CCCCCN1CCN(CC1)C(=O)N1CCc3ccc(cc3C1)C2CC(=O)O (stereo not shown) [Compound 5, 2-(carboxymethyl)-1^4-methyl-4-oxo-3^1,3^2,3^3,3^4-tetrahydro-1^1H-3(7,2)-isoquinolina-1(5,1)-benzo[d][1,2,3]triazola-5(4,1)-piperazin-1-iumacyclodecaphan-5^1-ium chloride] | > 30 | 100 to 1000 | – | – |
| Cc1ccc2cc1CN(C)C(=O)c1ccc(cc1)COCCCn1nnc3c(C)c(ccc31)C2CC(=O)O (single isomer, unassigned) [Compound 17, 2-(1^4,3^4,5-trimethyl-6-oxo-1^1H-9-oxa-5-aza-1(5,1)-benzo[d][1,2,3]triazola-3(1,3), 7(1,4)-dibenzenacyclododecaphane-2-yl)acetic acid] | > 30 | 1000 to 10000 | – | – |

Second part, led by results:

| EC50 ([1]; Homo sapiens, HepG2, 6 h) [µM] | IC50 [2] [nM] | EC50 [1] [µM] | SMILES | ring closure, isolated yield [3] [%] |
| --- | --- | --- | --- | --- |
| > 30 | 1000 to 10000 | – | Cc1c2ccc3c1nnn3CCCCCN1CCC(CC1)C(=O)N1CCc3ccc(cc3C1)C2CC(=O)O (stereo not shown) [Compound 2, 2-(carboxymethyl)-1^4-methyl-4-oxo-3^1,3^2,3^3,3^4-tetrahydro-1^1H-3(7,2)-isoquinolina-1(5,1)-benzo[d][1,2,3]triazola-5(4,1)-piperidin-1-iumacyclodecaphan-5^1-ium chloride] | – |
| 10 to 30 | ≤ 100 | – | Cc1c2ccc3c1nnn3CCCOCc1ccc(cc1)C(=O)N(C)Cc1cccc(c1)C2CC(=O)O (stereo not shown) [Compound 7, 2-(1^4,5-dimethyl-6-oxo-1^1H-9-oxa-5-aza-1(5,1)-benzo[d][1,2,3]triazola-3(1,3), 7(1,4)-dibenzenacyclododecaphane-2-yl)acetic acid] | – |
| ≤ 10 | ≤ 100 | – | Cc1c2ccc3c1nnn3CCCCCC1CCN(CC1)C(=O)N1CCc3ccc(cc3C1)C2CC(=O)O (stereo not shown) [Compound 14, 2-(1^4-methyl-4-oxo-3^1,3^2,3^3,3^4-tetrahydro-1^1H-3(7,2)-isoquinolina-1(5,1)-benzo[d][1,2,3]triazola-5(1,4)-piperidinacyclodecaphane-2-yl)acetic acid] | – |
| 10 to 30 | ≤ 100 | – | O=C(O)CC1c2ccc3c(c2)CN(CC3)C(=O)C2CCC(CCCCn3nnc4cc1cnc43)CC2 (stereo not shown) [Compound 56, 2-(4-oxo-31,32,33,34-tetrahydro-13H-3(7,2)-isoquinolina-1(6,3)-[1,2,3]triazolo[4,5-b]pyridina-5(1,4)-cyclohexanacyclononaphane-2-yl)acetic acid] | – |
| ≤ 10 | 100 to 1000 | – | Cc1c2ccc3c1nnn3CCCCCC1CCC(CC1)C(=O)N(C)Cc1cccc(c1)C2CC(=O)O (stereo not shown) [Compound 37] | – |
| 10 to 30 | ≤ 100 | – | Cc1c2ccc3c1nnn3CCCCCCCCN(C)C(=O)N1CCc3ccc(cc3C1)C2CC(=O)O (stereo not shown) [Compound 40] | – |
| ≤ 10 | ≤ 100 | – | O=C(O)CC1c2ccc3c(c2)CN(CC3)C(=O)N2CCC(CCCCCn3nnc4c(Cl)c1ccc43)CC2 (stereo not shown) [Compound 30, 2-(1^4-chloro-4-oxo-3^1,3^2,3^3,3^4-tetrahydro-1^1H-3(7,2)-isoquinolina-1(5,1)-benzo[d][1,2,3]triazola-5(1,4)-piperidinacyclodecaphane-2-yl)acetic acid] | – |
| ≤ 10 | ≤ 100 | – | Cc1c2ccc3c1nnn3CCCCCC1CCC(CC1)C(=O)N1CCc3ccc(cc3C1)C2CC(=O)O (stereo not shown) [Compound 35] | – |
| ≤ 10 | ≤ 100 | – | Cc1c2ccc3c1nnn3CCCOCC1CCN(CC1)C(=O)N1CCc3ccc(cc3C1)C2CC(=O)O (stereo not shown) [Compound 12, 2-(1^4-methyl-4-oxo-3^1,3^2,3^3,3^4-tetrahydro-1^1H-7-oxa-3(7,2)-isoquinolina-1(5,1)-benzo[d][1,2,3]triazola-5(1,4)-piperidinacyclodecaphane-2-yl)acetic acid] | – |
| ≤ 10 | ≤ 100 | – | Cc1c2ccc3c1nnn3CCCCOC1CCN(CC1)C(=O)N1CCc3ccc(cc3C1)C2CC(=O)O (stereo not shown) [Compound 10, 2-(1^4-methyl-4-oxo-3^1,3^2,3^3,3^4-tetrahydro-1^1H-6-oxa-3(7,2)-isoquinolina-1(5,1)-benzo[d][1,2,3]triazola-5(1,4)-piperidinacyclodecaphane-2-yl)acetic acid] | – |
| ≤ 10 | ≤ 100 | – | O=C(O)CC1c2ccc3c(c2)CN(CC3)C(=O)C2CCC(CCCCCn3nnc4cc1cnc43)CC2 (stereo not shown) [Compound 55, 2-(4-oxo-31,32,33,34-tetrahydro-13H-3(7,2)-isoquinolina-1(6,3)-[1,2,3]triazolo[4,5-b]pyridina-5(1,4)-cyclohexanacyclodecaphane-2-yl)acetic acid] | – |
| ≤ 10 | ≤ 100 | – | Cc1c2ccc3c1nnn3CCCCC1CCC(CC1)C(=O)N1CCc3ccc(cc3C1)C2CC(=O)O (stereo not shown) [Compound 34] | – |
| > 30 | 1000 to 10000 | – | Cc1c2ccc3c1nnn3CCOCCN1CCC(CC1)C(=O)N1CCc3ccc(cc3C1)C2CC(=O)O (stereo not shown) [Compound 3, 2-(carboxymethyl)-1^4-methyl-4-oxo-3^1,3^2,3^3,3^4-tetrahydro-1^1H-8-oxa-3(7,2)-isoquinolina-1(5,1)-benzo[d][1,2,3]triazola-5(4,1)-piperidin-1-iumacyclodecaphan-5^1-ium chloride] | – |
